Source: ChEMBL document CHEMBL4425144, “Discovery and Structural Optimization of N5-Substituted 6,7-Dioxo-6,7-dihydropteridines as Potent and Selective Epidermal Growth Factor Receptor (EGFR) Inhibitors against L858R/T790M Resistance Mutation” (J Med Chem, 2016)

What was measured:
[1] = Cmax in ICR mouse at 1 mg/kg, iv by LC-MS/MS method; format: ADME, organism-based; design: dose 1 mg/kg, route intravenous; details: in vivo
[2] = Half life in ICR mouse at 10 mg/kg, po by LC-MS/MS method; format: ADME, organism-based; details: in vivo

`C=CC(=O)Nc1cccc(-n2c(=O)c(=O)n(C(C)C)c3cnc(Nc4ccc(N5CCN(C)CC5)cc4OC)nc32)c1` gave a Cmax [1] of 258 ng/mL and a half-life [2] of 1.1 h.
